The target in this experiment is T1, RORγ ligand binding domain (LBD) (Homo sapiens, UniProt P51449).
T1 construct: made in house; host or cells: E. coli BL-21 (BL3), vector pDEST15
T1 sequence (P51449 269-508 limits assumed): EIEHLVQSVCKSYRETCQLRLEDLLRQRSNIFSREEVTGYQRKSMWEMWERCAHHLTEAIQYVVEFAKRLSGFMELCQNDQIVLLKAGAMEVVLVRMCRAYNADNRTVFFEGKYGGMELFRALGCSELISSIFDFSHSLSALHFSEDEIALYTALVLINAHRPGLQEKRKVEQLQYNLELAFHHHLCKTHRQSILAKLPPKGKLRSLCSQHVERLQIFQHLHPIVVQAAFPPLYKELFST
Kind of experiment: TR-FRET Activity Assay (ligand sensing, RORγ-LBD / coactivator peptide interaction). In kind it is biochemical. An excerpt:
This method measures the ability of putative ligands to modulate the interaction between the purified bacterial expressed RORγ ligand binding domain (LBD) and synthetic N-terminally biotinylated peptides which are derived from nuclear receptor coactivator proteins such as but not limited to SRC1 (NcoA1), SRC2 (NcoA2, TIF2), SRC3 (NcoA3), PGC1α, PGC1β, CBP, GRIP1, TRAP220, RIP140.
The ligand-binding domain (LBD) of RORγ was expressed as fusion protein with GST in […] cells using the vector pDEST15. Cells were lysed by lysozyme-treatment and sonication, and the fusion proteins purified over glutathione sepharose (Pharmacia) according to the manufacturers instructions. For screening of compounds for their influence on the RORγ-peptide interaction, the LANCE technology (Perkin Elmer) was applied. This method relies on the binding dependent energy transfer from a donor to an acceptor fluorophor attached to the binding partner of interest. For ease of handling and reduction of background from compound fluorescence LANCE technology makes use of generic fluorophore labels and time resolved detection assays were done in a final volume of 25 μL in a 384 well plate, in a Tris-based buffer system (20 mM Tris-HCl pH6.8; 60 mM KCl, 1 mM DTT; 5 mM MgCl2; 35 ng/μL BSA), containing 20-60 ng/well recombinantly expressed RORγ-LBD fused to GST, 200-600 nM N-terminally biotinylated peptide, 200 ng/well Streptavidin-xIAPC conjugate (Prozyme) and 6-10 ng/well Eu W1024-antiGST (Perkin Elmer). DMSO content of the samples was kept at 1%.
After generation of the Tris-based buffer system, the potentially RORγ modulating ligands were diluted. […] The LANCE signal was detected by a Perkin Elmer EnVision™ Multilabel Counter. The results were visualized by plotting the ratio between the emitted light at 665 nm and 615 nm. […] Ligands that promote the complex formation induce a concentration-dependent increase in time-resolved fluorescent signal.
The normalised TR-FRET assay values, using the following equation: 1000*665 nm measurement value/615 nm measurement value, were transferred to the program GraphPad Prism to generate graphs and dose response curves using the following equation:
Equation: Sigmoidal Dose-Response (Variable Slope) Y=Bottom+(Top-Bottom)/(1+10^((LogEC50−X)*HillSlope)) X is the logarithm of the concentration. Y is the response. Y starts at Bottom and goes to Top with a sigmoidal shape.
This is identical to the “four parameter logistic equation”. The IC50 values are calculated using this equation.

Setting [1] is: read-out: RORγ activity in the TR-FRET Activity Assay (IC50 FRET), Group.

Each structure is given as a SMILES string. Like-named read-outs stand apart in the source and are kept apart here. Some results are limits rather than exact numbers.

Here are results for 51 compounds from patent publication US8946446B2, “Pyrrolo sulfonamide compounds for modulation of orphan nuclear receptor RAR-related orphan receptor-γ (ROR-γ, NR1F3) activity and for the treatment of chronic inflammatory and autoimmune diseases” (Phenex Pharmaceuticals AG, priority 2011, dated 2015).

Regarding `Cc1c(S(N)(=O)=O)cc(-c2cccc(N3CCCC3)c2)n1CC1CCCCC1` [1/14], the IC50 (in general, the concentration that inhibits the measured activity by half) under setting [1] was greater than 2000 nM.

`Cc1c(S(N)(=O)=O)cc(-c2cc(C(F)(F)F)c3ncccc3c2)n1CC1CCCCC1` [1/16]: the IC50 under setting [1] is greater than 2000 nM. Same read-out and setting: then `Cc1c(S(N)(=O)=O)cc(-c2cccc(S(=O)(=O)N(C)C(C)(C)C)c2)n1CC1CCCCC1` [1/17], with greater than 2000 nM; and `Cc1c(S(N)(=O)=O)cc(-c2cn(S(=O)(=O)c3ccccc3)c3ccccc23)n1CC1CCCCC1` [1/19], with 500 to 2000 nM; and `Cc1c(S(N)(=O)=O)cc(-c2cc(C(C)(C)C)cc(C(C)(C)C)c2)n1CC1CCOCC1` [1/20], with greater than 2000 nM.

As for `Cc1c(S(N)(=O)=O)cc(-c2cc(C(C)(C)C)cc(C(C)(C)C)c2)n1CC1CCCCO1` (stereo not drawn) [1/21], the IC50 lay within 500 to 2000 nM. `Cc1c(S(N)(=O)=O)cc(-c2cc(C(C)(C)C)cc(C(C)(C)C)c2)n1CCC1CCCC1` [1/22]: under setting [1], the IC50 was less than 500 nM. Same read-out and setting: then `Cc1c(S(N)(=O)=O)cc(-c2cc(C(C)(C)C)nc(C(F)(F)F)c2)n1CC1CCCCC1` [1/23], with 500 to 2000 nM; and `Cc1c(S(N)(=O)=O)cc(-c2ccc(S(=O)(=O)N3CCC3(C)C)c(C(C)(C)C)c2)n1CC1CCCCC1` [1/24], with less than 500 nM; and `Cc1c(S(N)(=O)=O)cc(-c2ccc(S(=O)(=O)N3CCCCC3)c(C(C)(C)C)c2)n1CC1CCCCC1` [1/25], with less than 500 nM. Still for that read-out and setting: with `Cc1c(S(N)(=O)=O)cc(-c2ccc(S(=O)(=O)N3CCC(C)CC3)c(C(C)(C)C)c2)n1CC1CCCCC1` [1/26] the figure was 500 to 2000 nM. On the same count and under the same terms, then `Cc1c(S(N)(=O)=O)cc(-c2ccc(S(=O)(=O)N3CCCC(C)C3)c(C(C)(C)C)c2)n1CC1CCCCC1` (stereo not drawn) [1/27], with less than 500 nM; and `Cc1c(S(N)(=O)=O)cc(-c2cn(S(=O)(=O)N(C)C(C)(C)C)c3ccccc23)n1CC1CCCCC1` [1/31], with less than 500 nM. `Cc1c(S(N)(=O)=O)cc(-c2cn(S(=O)(=O)NC(C)(C)C)c3ccccc23)n1CC1CCCCC1` [1/32] returned an IC50 greater than 2000 nM.

For `Cc1c(S(N)(=O)=O)cc(-c2cn(S(=O)(=O)N3CCCCC3)c3ccccc23)n1CC1CCCCC1` [1/33], the IC50 under setting [1] fell in the range of 500 to 2000 nM. Still for that read-out and setting: with `Cc1c(S(N)(=O)=O)cc(-c2cn(S(=O)(=O)NC3CCCCC3)c3ccccc23)n1CC1CCCCC1` [1/34] the figure was 500 to 2000 nM. With `Cc1ccc2c(-c3cc(S(N)(=O)=O)c(C)n3CC3CCCCC3)cn(S(=O)(=O)N3CCCCC3)c2c1` [1/35], the IC50 under setting [1] was less than 500 nM. Still for that read-out and setting: with `Cc1c(S(N)(=O)=O)cc(-c2c(C)n(S(=O)(=O)N3CCCCC3)c3ccccc23)n1CC1CCCCC1` [1/36] the figure was greater than 2000 nM. On to `Cc1c(S(N)(=O)=O)cc(-c2cc(C(C)(C)C)cc(C(C)(C)C)c2)n1CC1CCCCCC1` [1/37], for which the IC50 under setting [1] was less than 500 nM. Take `Cc1c(S(N)(=O)=O)cc(-c2cc(C(C)(C)C)cc(C(C)(C)C)c2)n1CC1CCCC1` [1/38]: the 50% inhibitory concentration (IC50) under setting [1] was 500 to 2000 nM.

Consider `Cc1c(S(N)(=O)=O)cc(-c2cc(C(C)(C)C)cc(C(C)(C)C)c2)n1CC1CCC1` [1/39], for which the IC50 under setting [1] is 500 to 2000 nM. As for `Cc1c(S(=O)(=O)NCCO)cc(-c2cc(C(C)(C)C)cc(C(C)(C)C)c2)n1CC1CCCCC1` [2/2], the IC50 under setting [1] was less than 500 nM. Still for that read-out and setting: with `Cc1c(S(=O)(=O)NC2CCC2)cc(-c2cc(C(C)(C)C)cc(C(C)(C)C)c2)n1CC1CCCCC1` [2/3] the figure was 500 to 2000 nM. On the same count and under the same terms, then `Cc1c(S(=O)(=O)NC2CCCC2)cc(-c2cc(C(C)(C)C)cc(C(C)(C)C)c2)n1CC1CCCCC1` [2/4], with 500 to 2000 nM. `Cc1c(S(=O)(=O)NCC(C)(C)O)cc(-c2cc(C(C)(C)C)cc(C(C)(C)C)c2)n1CC1CCCCC1` [2/5] had an IC50 of less than 500 nM. As for `Cc1c(S(=O)(=O)NCCN2CCOCC2)cc(-c2cc(C(C)(C)C)cc(C(C)(C)C)c2)n1CC1CCCCC1` [2/6], the IC50 under setting [1] was less than 500 nM. The same measure, in the same setting: with `Cc1c(S(=O)(=O)NCc2nc(C(=O)O)co2)cc(-c2cc(C(C)(C)C)cc(C(C)(C)C)c2)n1CC1CCCCC1` [5/5] the figure was 500 to 2000 nM; with `Cc1c(S(=O)(=O)NCC2COCCN2C)cc(-c2cc(C(C)(C)C)cc(C(C)(C)C)c2)n1CC1CCCCC1` (stereo not drawn) [5/11], 500 to 2000 nM. Same read-out and setting: then `Cc1c(S(=O)(=O)NCC(C)(C)C(=O)O)cc(-c2cc(C(C)(C)C)cc(C3(C)CC3)c2)n1CC1CCCCC1` [11/1], with greater than 2000 nM; and `Cc1c(S(N)(=O)=O)c(C)n(CC2CCCCC2)c1-c1cc(C(C)(C)C)cc(C(C)(C)C)c1` [12/8], with 500 to 2000 nM; and `Cc1c(S(N)(=O)=O)cc(-c2cc3c(c(C(C)(C)C)c2)OCC(=O)N3C)n1CC1CCCCC1` [12/9], with greater than 2000 nM. For the compound `Cc1c(S(N)(=O)=O)cc(-c2cc3c(c(C(C)(C)C)c2)OCC(=O)N3C(C)C)n1CC1CCCCC1` [12/10], the IC50 was in the range of 500 to 2000 nM. As to `Cc1c(S(N)(=O)=O)cc(-c2cc(OCC(F)(F)F)nc(C(C)(C)C)c2)n1CC1CCCCC1` [12/12], the IC50 under setting [1] was less than 500 nM. On the same count and under the same terms, with `Cc1c(S(N)(=O)=O)cc(-c2cc(C(C)C)c3c(c2)C(C)(C)NS3(=O)=O)n1CC1CCCCC1` [12/17] the figure was greater than 2000 nM; with `Cc1c(S(N)(=O)=O)cc(-c2ccc3c(c2)C(C)(C)CN(C(C)C)S3(=O)=O)n1CC1CCCCC1` [12/18], greater than 2000 nM. Still for that read-out and setting: with `Cc1c(S(N)(=O)=O)cc(-c2cc(C(C)(C)C)cc(C(C)(C)CF)c2)n1CC1CCCCC1` [12/26] the figure was greater than 2000 nM. Still for that read-out and setting: with `CC(=O)c1cc(-c2cc(S(N)(=O)=O)c(C)n2CC2CCCCC2)cc(C(C)(C)C)c1` [12/27] the figure was greater than 2000 nM; with `Cc1c(S(N)(=O)=O)cc(-c2cc3c(c(C(C)(C)C)c2)OCCC3=O)n1CC1CCCCC1` [12/28], 500 to 2000 nM; with `Cc1c(S(N)(=O)=O)cc(-c2ccc(S(=O)(=O)NC(C)(C)C)c(C(F)F)c2)n1CC1CCCCC1` [12/29], less than 500 nM.

On to `Cc1c(S(N)(=O)=O)cc(-c2ccc(S(=O)(=O)NC(C)(C)CCO)c(C(F)(F)F)c2)n1CC1CCCCC1` [12/31], for which, under setting [1], the IC50 is 500 to 2000 nM. Still for that read-out and setting: then `COCC(C)(C)NS(=O)(=O)c1ccc(-c2cc(S(N)(=O)=O)c(C)n2CC2CCCCC2)cc1C(F)(F)F` [12/32], with 500 to 2000 nM; and `Cc1c(S(N)(=O)=O)cc(-c2cc(C(C)(C)C)cc(C3(C)CC3)c2)n1CC1CCCCC1` [12/33], with less than 500 nM; and `Cc1c(S(N)(=O)=O)cc(-c2ccc(N3CCOCC3)c(C(C)(C)C)c2)n1CC1CCCCC1` [12/34], with 500 to 2000 nM. For the compound `Cc1c(S(N)(=O)=O)cc(-c2ccc(N3CCOCC3=O)c(C(C)(C)C)c2)n1CC1CCCCC1` [12/35], the IC50 under setting [1] was greater than 2000 nM.

For the compound `Cc1c(S(N)(=O)=O)cc(-c2cc(C(C)(C)C)c(F)c(C(C)(C)C)c2)n1CC1CCCCC1` [12/39], the concentration for half-maximal inhibition (IC50) under setting [1] was less than 500 nM. On to `Cc1c(S(N)(=O)=O)cc(-c2cc(C3(C)CC3)cc(C3(C)CC3)c2)n1CC1CCCCC1` [12/40], for which the IC50 under setting [1] was less than 500 nM.

For the compound `Cc1c(S(N)(=O)=O)cc(-c2cc(C(F)(F)F)c3c(c2)C2(CCO3)CC2)n1CC1CCCCC1` [12/41], the IC50 under setting [1] fell in the range of 500 to 2000 nM.

With `Cc1c(S(N)(=O)=O)cc(-c2cc3c(c(C(C)(C)C)c2)OCCC3O)n1CC1CCCCC1` (stereo not drawn) [12/45], the IC50 under setting [1] is greater than 2000 nM. On the same count and under the same terms, with `Cc1c(S(N)(=O)=O)cc(-c2cc(C(=O)NC(C)(C)C)cc(C(F)(F)F)c2)n1CC1CCCCC1` [13/13] the figure was 500 to 2000 nM. The same measure, in the same setting: with `Cc1c(S(N)(=O)=O)cc(-c2cc(C(=O)N(C)C(C)(C)C)cc(C(F)(F)F)c2)n1CC1CCCCC1` [13/14] the figure was greater than 2000 nM; with `COc1cc(-c2cc(S(N)(=O)=O)c(C)n2CC2CCCCC2)cc(C(C)(C)C)c1` [16/1], greater than 2000 nM.
